Measurements reported in ChEMBL document CHEMBL1201861, “Genomics of Drug Sensitity in Cancer screening data, Wellcome Trust Sanger Institute”.

Tests used:
SF-295 = test: cells; format: functional, cell-based; details: Homo sapiens;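 also: growth inhibition of SF-295 cells, read out with a cell viability assay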
Description: SANGER: Inhibition of human SF295 cell growth in a cell viability assay.

CaR-1 = test: cells; format: functional, cell-based; details: Homo sapiens;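 also: growth inhibition of human CaR-1 cancer cells, read out with a cell viability assay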
Description: SANGER: Inhibition of human CaR-1 cell growth in a cell viability assay.

K052 = test: cells; format: functional, cell-based, Homo sapiens; details: Homo sapiens, K052;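 also: Read-out from a cell viability assay, IC50 reflecting suppression of K052 cell growth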
Description: SANGER: Inhibition of human K052 cell growth in a cell viability assay.

Raji = test: cells; format: functional, cell-based, Homo sapiens; details: Homo sapiens, Raji;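 also: cell viability assay measuring inhibition of Raji cell growth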
Description: SANGER: Inhibition of human Raji cell growth in a cell viability assay.

UMC-11 = test: cells; format: functional, cell-based; details: Homo sapiens;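 also: growth inhibition of UMC-11 cells, read out with a cell viability assay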
Description: SANGER: Inhibition of human UMC-11 cell growth in a cell viability assay.

CAL-120 = test: cells; format: functional, cell-based; details: Homo sapiens;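 also: cell growth inhibition, read out as cell viability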
Description: SANGER: Inhibition of human CAL-120 cell growth in a cell viability assay.

RPMI-2650 = test: cells; format: functional, cell-based; details: Homo sapiens
Description: SANGER: Inhibition of human RPMI-2650 cell growth in a cell viability assay.

KYSE-510 = test: cells; format: functional, cell-based; details: Homo sapiens;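 also: cell viability readout used to measure how strongly growth of the cell line is suppressed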
Description: SANGER: Inhibition of human KYSE-510 cell growth in a cell viability assay.

ARH-77 = test: cells; format: functional, cell-based, Homo sapiens; details: Homo sapiens, ARH-77;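 also: growth inhibition of ARH-77 cells, read out by a cell viability assay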
Description: SANGER: Inhibition of human ARH-77 cell growth in a cell viability assay.

GAMG = test: cells; format: functional, cell-based; details: Homo sapiens;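 also: cell growth inhibition measured by a viability assay in the GAMG human cell line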
Description: SANGER: Inhibition of human GAMG cell growth in a cell viability assay.

BC1 cell line = test: SANGER: Inhibition of human BC-1 cell growth in a cell viability assay.; format: functional, cell-based; details: Homo sapiens, BC1
KMOE-2 = test: cells; format: functional, cell-based, Homo sapiens; details: Homo sapiens, KMOE-2;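 also: growth inhibition of human KMOE-2 cells, read out with a cell viability assay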
Description: SANGER: Inhibition of human KMOE-2 cell growth in a cell viability assay.

KYSE-140 = test: cells; format: functional, cell-based; details: Homo sapiens;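 also: cell viability assay measuring growth inhibition in human KYSE-140 cells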
Description: SANGER: Inhibition of human KYSE-140 cell growth in a cell viability assay.

SCC-3 = test: cells; format: functional, cell-based, Homo sapiens; details: Homo sapiens, SCC-3;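 also: cell viability assay measuring inhibition of SCC-3 cell growth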
Description: SANGER: Inhibition of human SCC-3 cell growth in a cell viability assay.

A673 = test: cells; format: functional, cell-based; details: Homo sapiens;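 also: growth inhibition of human A673 cells, read out through a cell viability assay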
Description: SANGER: Inhibition of human A673 cell growth in a cell viability assay.

ECC4 = test: cells; format: functional, cell-based, Homo sapiens; details: Homo sapiens, ECC4;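 also: growth inhibition of ECC4 cells, read out with a cell viability assay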
Description: SANGER: Inhibition of human ECC4 cell growth in a cell viability assay.

HSC-3 = test: cells; format: functional, cell-based; details: Homo sapiens
Description: SANGER: Inhibition of human HSC-3 cell growth in a cell viability assay.

LB647-SCLC = test: cells; format: functional, cell-based, Homo sapiens; details: Homo sapiens, LB647-SCLC;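 also: cell growth inhibition, read out by a viability assay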
Description: SANGER: Inhibition of human LB647-SCLC cell growth in a cell viability assay.

NUGC-3 = test: cells; format: functional, cell-based; details: Homo sapiens;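 also: growth inhibition of human NUGC-3 cells, read out with a cell viability assay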
Description: SANGER: Inhibition of human NUGC-3 cell growth in a cell viability assay.

NCI-H64 = test: cells; format: functional, cell-based, Homo sapiens; details: Homo sapiens, NCI-H64;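 also: growth inhibition of NCI-H64 cells, read out with a cell viability assay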
Description: SANGER: Inhibition of human NCI-H64 cell growth in a cell viability assay.

SW948 = test: cells; format: functional, cell-based; details: Homo sapiens;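 also: growth inhibition of SW948 cells, read out with a cell viability assay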
Description: SANGER: Inhibition of human SW948 cell growth in a cell viability assay.

JEG-3 = test: cells; format: functional, cell-based; details: Homo sapiens;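 also: growth inhibition of human JEG-3 cells, read out with a cell viability assay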
Description: SANGER: Inhibition of human JEG-3 cell growth in a cell viability assay.

HCC1937 = test: cells; format: functional, cell-based; details: Homo sapiens;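 also: growth inhibition measured with a cell viability read-out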
Description: SANGER: Inhibition of human HCC1937 cell growth in a cell viability assay.

639-V = test: cells; format: functional, cell-based; details: Homo sapiens;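 also: growth inhibition of 639-V cells, read out with a cell viability assay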
Description: SANGER: Inhibition of human 639-V cell growth in a cell viability assay.

PANC-08-13 = test: cells; format: functional, cell-based; details: Homo sapiens
Description: SANGER: Inhibition of human PANC-08-13 cell growth in a cell viability assay.

COLO-678 = test: cells; format: functional, cell-based; details: Homo sapiens
Description: SANGER: Inhibition of human COLO-678 cell growth in a cell viability assay.

HuP-T4 = test: cells; format: functional, cell-based; details: Homo sapiens;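 also: cell viability assay measuring how much HuP-T4 cell growth is inhibited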
Description: SANGER: Inhibition of human HuP-T4 cell growth in a cell viability assay.

HT1197 = test: cells; format: functional, cell-based, HT-1197; details: Homo sapiens
Description: SANGER: Inhibition of human HT-1197 cell growth in a cell viability assay.

DG-75 = test: cells; format: functional, cell-based, Homo sapiens; details: Homo sapiens, DG-75;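 also: growth inhibition of DG-75 cells, read out with a cell viability assay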
Description: SANGER: Inhibition of human DG-75 cell growth in a cell viability assay.

NCI-H2170 = test: cells; format: functional, cell-based; details: Homo sapiens;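 also: cell viability assay measuring growth inhibition of human NCI-H2170 cancer cells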
Description: SANGER: Inhibition of human NCI-H2170 cell growth in a cell viability assay.

LOUCY = test: cells; format: functional, cell-based, Homo sapiens; details: Homo sapiens, LOUCY;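 also: growth inhibition of human LOUCY cells, read out with a cell viability assay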
Description: SANGER: Inhibition of human LOUCY cell growth in a cell viability assay.

PFSK-1 = test: cells; format: functional, cell-based; details: Homo sapiens;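 also: cell viability assay measuring how strongly compounds suppress growth of human PFSK-1 cells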
Description: SANGER: Inhibition of human PFSK-1 cell growth in a cell viability assay.

BOKU = test: cells; format: functional, cell-based; details: Homo sapiens;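 also: growth inhibition of the human BOKU cell line, read out by a cell viability assay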
Description: SANGER: Inhibition of human BOKU cell growth in a cell viability assay.

MONO-MAC-6 = test: cells; format: functional, cell-based, Homo sapiens; details: Homo sapiens, MONO-MAC-6;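 also: cell viability assay measuring growth inhibition of human MONO-MAC-6 cells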
Description: SANGER: Inhibition of human MONO-MAC-6 cell growth in a cell viability assay.

BPH-1 = test: cells; format: functional, cell-based; details: Homo sapiens;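 also: cell viability assay measuring growth inhibition of human BPH-1 cells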
Description: SANGER: Inhibition of human BPH-1 cell growth in a cell viability assay.

THP-1 = test: cells; format: functional, cell-based, Homo sapiens; details: Homo sapiens, THP-1;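 also: growth inhibition of THP-1 cells, read out via a cell viability assay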
Description: SANGER: Inhibition of human THP-1 cell growth in a cell viability assay.

AU565 = test: cells; format: functional, cell-based; details: Homo sapiens;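 also: cell viability assay measuring growth inhibition of human AU565 cells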
Description: SANGER: Inhibition of human AU565 cell growth in a cell viability assay.

COLO-680N = test: cells; format: functional, cell-based; details: Homo sapiens;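 also: cell viability assay used to measure inhibition of COLO-680N cell growth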
Description: SANGER: Inhibition of human COLO-680N cell growth in a cell viability assay.

HuCCT-1 = test: cells; format: functional, cell-based, HuCCT1; details: Homo sapiens;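 also: growth inhibition of HuCCT-1 cells, read out by a cell viability assay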
Description: SANGER: Inhibition of human HuCCT1 cell growth in a cell viability assay.

DoTc2-4510 = test: cells; format: functional, cell-based; details: Homo sapiens
NCI-H2405 = test: cells; format: functional, cell-based; details: Homo sapiens;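 also: growth inhibition of the human cell line, read out with a cell viability assay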
Description: SANGER: Inhibition of human NCI-H2405 cell growth in a cell viability assay.

LC4-1 = test: cells; format: functional, cell-based, Homo sapiens; details: Homo sapiens, LC4-1;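 also: growth inhibition of LC4-1 cells, read out with a cell viability assay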
Description: SANGER: Inhibition of human LC4-1 cell growth in a cell viability assay.

NCI-H1522 = test: cells; format: functional, cell-based, Homo sapiens; details: Homo sapiens, NCI-H1522;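 also: growth inhibition of NCI-H1522 cells, read out with a cell viability assay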
Description: SANGER: Inhibition of human NCI-H1522 cell growth in a cell viability assay.

Detroit 562 = test: cells; format: functional, cell-based; details: Homo sapiens;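 also: growth inhibition of human Detroit 562 cells, read out by a cell viability assay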
Description: SANGER: Inhibition of human Detroit562 cell growth in a cell viability assay.

NCI-H727 = test: cells; format: functional, cell-based; details: Homo sapiens;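 also: growth inhibition of human NCI-H727 cells, read out with a cell viability assay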
Description: SANGER: Inhibition of human NCI-H727 cell growth in a cell viability assay.

LC-1F = test: cells; format: functional, cell-based, Homo sapiens; details: Homo sapiens, LC-1F;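 also: growth inhibition of human LC-1F cells, read out with a cell viability assay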
Description: SANGER: Inhibition of human LC-1F cell growth in a cell viability assay.

UMUC3 = test: cells; format: functional, cell-based; details: Homo sapiens;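 also: growth inhibition of human UM-UC-3 cells, read out with a cell viability assay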
Description: SANGER: Inhibition of human UM-UC-3 cell growth in a cell viability assay.

NCI-H2122 = test: cells; format: functional, cell-based; details: Homo sapiens;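 also: growth inhibition of the cells, read out with a cell viability assay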
Description: SANGER: Inhibition of human NCI-H2122 cell growth in a cell viability assay.

TE-441-T = test: cells; format: functional, cell-based, Homo sapiens; details: Homo sapiens, TE-441-T
Description: SANGER: Inhibition of human TE-441-T cell growth in a cell viability assay.

LN-405 = test: cells; format: functional, cell-based; details: Homo sapiens
Description: SANGER: Inhibition of human LN-405 cell growth in a cell viability assay.

T47D = test: cells; format: functional, cell-based; details: Homo sapiens;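 also: growth inhibition of human T47D cells, measured with a cell viability assay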
Description: SANGER: Inhibition of human T47D cell growth in a cell viability assay.

MDA-MB-134-VI = test: cells; format: functional, cell-based, Homo sapiens; details: Homo sapiens, MDA-MB-134-VI
Description: SANGER: Inhibition of human MDA-MB-134-VI cell growth in a cell viability assay.

H4 = test: cells; format: functional, cell-based; details: Homo sapiens
Description: SANGER: Inhibition of human H4 cell growth in a cell viability assay.

GCT = test: cells; format: functional, cell-based; details: Homo sapiens;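 also: GCT cell line proliferation inhibition, read out with a cell viability assay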
Description: SANGER: Inhibition of human GCT cell growth in a cell viability assay.

CESS = test: SANGER: Inhibition of human CESS cell growth in a cell viability assay.; format: functional, cell-based; details: Homo sapiens, CESS
HLE = test: cells; format: functional, cell-based; details: Homo sapiens;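 also: growth inhibition of human HLE cells, read out by a cell viability assay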
Description: SANGER: Inhibition of human HLE cell growth in a cell viability assay.

HGC-27 = test: cells; format: functional, cell-based; details: Homo sapiens;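 also: growth inhibition of human HGC-27 cells, read out in a cell viability assay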
Description: SANGER: Inhibition of human HGC-27 cell growth in a cell viability assay.

CCCCCCCCCCCC1=C(O)C(=O)C=C(O)C1=O [EMBELIN]
IC50 (SF-295): 1.75 µM | IC50 (CaR-1): > 32 µM | IC50 (K052): 29 µM | IC50 (Raji): 10.5 µM | IC50 (UMC-11): > 32 µM | IC50 (CAL-120): 24 µM | IC50 (RPMI-2650): 7.32 µM | IC50 (KYSE-510): 5.81 µM | IC50 (ARH-77): 16.4 µM | IC50 (GAMG): 9.09 µM | IC50 (BC1 cell line): 5.03 µM | IC50 (KMOE-2): 24.3 µM | IC50 (KYSE-140): 5.04 µM | IC50 (SCC-3): > 32 µM | IC50 (A673): 12.6 µM | IC50 (ECC4): 23.8 µM | IC50 (HSC-3): 23.9 µM | IC50 (LB647-SCLC): > 32 µM | IC50 (NUGC-3): 9.18 µM | IC50 (NCI-H64): > 32 µM | IC50 (SW948): > 32 µM | IC50 (JEG-3): 16.8 µM | IC50 (HCC1937): 8.63 µM | IC50 (639-V): > 32 µM | IC50 (PANC-08-13): > 32 µM | IC50 (COLO-678): > 32 µM | IC50 (HuP-T4): 7.56 µM | IC50 (HT1197): 25.3 µM | IC50 (DG-75): > 32 µM | IC50 (NCI-H2170): 12.1 µM | IC50 (LOUCY): 5.1 µM | IC50 (PFSK-1): 14 µM | IC50 (BOKU): 10.7 µM | IC50 (MONO-MAC-6): 21.8 µM | IC50 (BPH-1): > 32 µM | IC50 (THP-1): 29.8 µM | IC50 (AU565): 9.91 µM | IC50 (COLO-680N): 19.4 µM | IC50 (HuCCT-1): 9.92 µM | IC50 (DoTc2-4510): 14.2 µM | IC50 (NCI-H2405): 8 µM | IC50 (LC4-1): > 32 µM | IC50 (NCI-H1522): 30.6 µM | IC50 (Detroit 562): 11.5 µM | IC50 (NCI-H727): 7.88 µM | IC50 (LC-1F): 31.2 µM | IC50 (UMUC3): 10.1 µM | IC50 (NCI-H2122): 2.81 µM | IC50 (TE-441-T): > 32 µM | IC50 (LN-405): 18.8 µM | IC50 (T47D): > 32 µM | IC50 (MDA-MB-134-VI): > 32 µM | IC50 (H4): 4.13 µM | IC50 (GCT): > 32 µM | IC50 (CESS): 6.24 µM | IC50 (HLE): 5.93 µM | IC50 (HGC-27): 7.95 µM
